As usually defined, the IC50 is the concentration that inhibits the measured activity by half.

The record followed here is US7348336B2 (Sanofi-Aventis Deutschland GmbH, priority 2000, dated 2008).

The target of the assay is T1, IκBα-kinase complex (Homo sapiens, UniProt O14920+O15111).
T1 construct: endogenous in cells; host or cells: HeLa S3 cell extract, S100 fraction; ammonium sulfate precipitation and Superose-6 size exclusion
Nature of the assay: IkB-Kinase ELISA.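 Note: substrate phosphopeptide captured on Protein-A plates, detected with Streptavidin-HRP and TMB absorbance at 450 nm, activity read from a synthetic phosphopeptide standard curve.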 The assay is classed as biochemical. For orientation: ELISA stands for enzyme-linked immunosorbent assay.

[1] abbreviates: activated IκBα kinase complex from HeLa S3 cell extracts, ELISA, read-out: IkB-kinase IC50.

Counter-ions that a name gives are not always drawn. Like-named read-outs stand apart in the source and are kept apart here.

T1 sequence (O14920 whole entry): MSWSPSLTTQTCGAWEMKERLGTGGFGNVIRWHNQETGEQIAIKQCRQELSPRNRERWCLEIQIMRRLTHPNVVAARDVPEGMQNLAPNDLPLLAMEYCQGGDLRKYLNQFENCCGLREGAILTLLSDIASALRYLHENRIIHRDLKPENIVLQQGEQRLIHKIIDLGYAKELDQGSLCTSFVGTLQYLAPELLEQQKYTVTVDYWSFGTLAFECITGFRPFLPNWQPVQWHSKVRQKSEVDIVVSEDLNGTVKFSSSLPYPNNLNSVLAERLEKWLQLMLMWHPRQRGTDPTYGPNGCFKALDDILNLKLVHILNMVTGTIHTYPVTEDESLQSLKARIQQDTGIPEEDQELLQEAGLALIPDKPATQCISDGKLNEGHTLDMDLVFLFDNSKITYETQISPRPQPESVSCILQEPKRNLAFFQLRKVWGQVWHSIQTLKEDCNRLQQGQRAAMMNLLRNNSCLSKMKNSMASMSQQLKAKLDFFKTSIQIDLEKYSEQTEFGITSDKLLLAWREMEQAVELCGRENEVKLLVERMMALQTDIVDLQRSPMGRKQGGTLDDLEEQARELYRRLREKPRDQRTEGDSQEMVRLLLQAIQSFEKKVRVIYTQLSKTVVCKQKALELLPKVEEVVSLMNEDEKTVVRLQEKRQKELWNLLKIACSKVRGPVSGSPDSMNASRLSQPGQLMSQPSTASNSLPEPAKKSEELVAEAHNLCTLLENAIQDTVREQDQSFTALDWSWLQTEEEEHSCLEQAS
T1 sequence (O15111 whole entry): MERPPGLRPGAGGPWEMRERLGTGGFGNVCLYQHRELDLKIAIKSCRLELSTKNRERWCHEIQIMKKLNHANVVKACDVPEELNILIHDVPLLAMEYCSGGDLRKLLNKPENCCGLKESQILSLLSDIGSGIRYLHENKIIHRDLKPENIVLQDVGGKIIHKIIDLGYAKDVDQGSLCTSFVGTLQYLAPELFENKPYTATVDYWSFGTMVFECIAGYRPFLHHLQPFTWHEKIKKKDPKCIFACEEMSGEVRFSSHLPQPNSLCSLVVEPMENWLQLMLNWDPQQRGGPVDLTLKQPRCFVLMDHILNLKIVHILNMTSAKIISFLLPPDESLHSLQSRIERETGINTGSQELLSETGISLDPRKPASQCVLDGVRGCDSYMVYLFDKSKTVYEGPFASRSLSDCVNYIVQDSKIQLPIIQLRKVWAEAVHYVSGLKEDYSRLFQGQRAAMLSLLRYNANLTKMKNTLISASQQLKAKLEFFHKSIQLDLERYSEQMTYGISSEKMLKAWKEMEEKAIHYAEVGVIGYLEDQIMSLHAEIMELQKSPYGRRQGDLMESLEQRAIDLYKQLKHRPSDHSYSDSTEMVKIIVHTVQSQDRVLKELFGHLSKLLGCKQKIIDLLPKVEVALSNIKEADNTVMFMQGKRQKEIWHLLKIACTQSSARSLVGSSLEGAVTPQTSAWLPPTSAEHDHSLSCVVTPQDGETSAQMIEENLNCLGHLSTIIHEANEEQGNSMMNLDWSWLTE
T1 sequence (Q9Y6K9 whole entry partner): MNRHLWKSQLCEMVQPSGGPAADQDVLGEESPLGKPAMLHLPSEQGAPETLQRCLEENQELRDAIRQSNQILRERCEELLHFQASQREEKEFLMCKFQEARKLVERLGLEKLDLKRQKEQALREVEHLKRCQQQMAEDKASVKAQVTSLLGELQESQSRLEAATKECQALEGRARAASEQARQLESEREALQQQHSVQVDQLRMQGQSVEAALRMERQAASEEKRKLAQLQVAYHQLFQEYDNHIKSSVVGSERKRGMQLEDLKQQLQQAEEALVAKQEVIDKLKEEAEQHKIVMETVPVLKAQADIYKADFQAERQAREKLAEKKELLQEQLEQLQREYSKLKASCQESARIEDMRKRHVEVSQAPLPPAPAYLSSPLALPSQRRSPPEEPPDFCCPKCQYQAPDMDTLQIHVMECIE

With `Brc1ccc2[nH]c3cnccc3c2c1` [Example 1], under setting [1], the IC50 is 0.4 µM.
Regarding `CC(=O)n1c2ccc(Br)cc2c2ccncc21` [Example 2], the IC50 under setting [1] came to 0.4 µM.
As to `Clc1cc(Cl)c2[nH]c3cnccc3c2c1` [Example 9], under setting [1], the IC50 is 0.2 µM.
Regarding `CS(=O)(=O)n1c2ccc(Br)cc2c2ccncc21` [Example 10], under setting [1], the IC50 was 0.4 µM.
On to `Cn1c2ccc(Br)cc2c2ccncc21` [Example 11], for which, under setting [1], the IC50 is 0.7 µM.
On to `O=[N+]([O-])c1cc(Cl)cc2c1[nH]c1cnccc12` [Example 14], for which the IC50 under setting [1] turned out to be 4 µM.
With `Nc1cc(Cl)cc2c1[nH]c1cnccc12` [Example 15], the IC50 under setting [1] came to 0.8 µM.
As to `O=C(N1CCOCC1)n1c2ccc(Br)cc2c2ccncc21` [Example 17], under setting [1], the IC50 came out at 5 µM.
On to `CCOC(=O)Cn1c2ccc(Cl)cc2c2ccncc21` [Example 18], for which, under setting [1], the IC50 came out at 23 µM.
Regarding `OCCn1c2ccc(Cl)cc2c2ccncc21` [Example 19], under setting [1], the IC50 turned out to be 3 µM.
In the case of `NC(=O)Cn1c2ccc(Cl)cc2c2ccncc21` [Example 22], the IC50 under setting [1] was determined as 15 µM.
Regarding `Cc1nccc2c1[nH]c1cc(OCC(=O)OC(C)(C)C)ccc12` [Example 25], the IC50 under setting [1] is 31 µM.
For `Cc1nccc2c1[nH]c1cc(OCc3ccccc3)ccc12` [Example 26], the IC50 under setting [1] was found to be 12 µM.
Turning to `CCOc1ccc2c(c1)[nH]c1c(C)nccc12` [Example 27], the IC50 under setting [1] came to 4.5 µM.
Take `Cc1nccc2c1[nH]c1ccc(Br)cc12` [Example 28]: the IC50 under setting [1] worked out at 11 µM.
On to `CC(=O)Oc1ccc2c(c1)[nH]c1c(C)nccc12` [Example 29], for which, under setting [1], the IC50 came to 40 µM.
Take `Fc1ccc2c(c1)[nH]c1cnccc12` [Example 31]: the IC50 under setting [1] is 3.3 µM.
On the same count and under the same terms, then `COc1cc2[nH]c3c(C)nccc3c2cc1Br` [Example 32], with 4.6 µM; and `Fc1cc2[nH]c3cnccc3c2cc1Cl` [Example 34], with 1 µM; and `COc1ccc2c([nH]c3cnccc32)c1Cl` [Example 36, trifluoroacetate], with 1.4 µM.
On to `COc1c(Cl)cc2c([nH]c3cnccc32)c1Cl` [Example 37, trifluoroacetate], for which the IC50 under setting [1] worked out at 0.15 µM.
With `Oc1c(Cl)cc2c([nH]c3cnccc32)c1Cl` [Example 38], the IC50 under setting [1] is 11 µM.
In the case of `CCOc1c(Cl)cc2c([nH]c3cnccc32)c1Cl` [Example 39], under setting [1], the IC50 is 0.1 µM.
On to `Fc1cc2[nH]c3cnccc3c2cc1Cl` [Example 40, trifluoroacetate], for which the IC50 under setting [1] is 2 µM.
The same measure, in the same setting: then `CNc1cc(Cl)cc2c1[nH]c1cnccc12` [Example 43, trifluoroacetate], with 1 µM.
In turn, `CN(C)c1cc(Cl)cc2c1[nH]c1cnccc12` [Example 44, trifluoroacetate] gave an IC50 (IkB-kinase IC50) of 2 µM.
On to `CS(=O)(=O)Nc1cc(Cl)cc2c1[nH]c1cnccc12` [Example 45, trifluoroacetate], for which, under setting [1], the IC50 was 8.3 µM.
Consider `CC(=O)N(C)c1cc(Cl)cc2c1[nH]c1cnccc12` [Example 48, trifluoroacetate], for which the IC50 under setting [1] turned out to be 4 µM.
With `COCC(=O)Nc1cc(Cl)cc2c1[nH]c1cnccc12` [Example 51, trifluoroacetate], the IC50 under setting [1] turned out to be 0.6 µM.
Regarding `COc1cccc(C(=O)Nc2cc(Cl)cc3c2[nH]c2cnccc23)c1` [Example 52, 7-chloro-9-(3-methoxybenzoxylamino)-β-carboline trifluoroacetate], the IC50 under setting [1] was 0.6 µM.
On to `COc1ccc(C(=O)Nc2cc(Cl)cc3c2[nH]c2cnccc23)cc1` [Example 53, 7-chloro-9-(4-methoxybenzoxylamino)-β-carboline trifluoroacetate], for which the IC50 under setting [1] was 1.4 µM.
Turning to `CC(C)CC(=O)Nc1cc(Cl)cc2c1[nH]c1cnccc12` [Example 55, trifluoroacetate], the IC50 under setting [1] came out at 0.8 µM.
In the case of `O=C(Nc1cc(Cl)cc2c1[nH]c1cnccc12)c1ccncc1` [Example 56], the IC50 under setting [1] was determined as 0.27 µM.
Regarding `CC(C)(C)C(=O)Nc1cc(Cl)cc2c1[nH]c1cnccc12` [Example 57], under setting [1], the IC50 was found to be 4.3 µM.
Same read-out and setting: then `CC(C)(C)C(=O)Oc1c(Cl)cc2c([nH]c3cnccc32)c1Cl` [Example 58], with 0.33 µM; and `O=C(Oc1c(Cl)cc2c([nH]c3cnccc32)c1Cl)N1CCOCC1` [Example 59], with 3.2 µM.
As for `O=C(Nc1cc(Cl)cc2c1[nH]c1cnccc12)c1cccnc1` [Example 60, N-(6-Chloro-9H-β-carbolin-8-yl)-nicotinamide], under setting [1], the IC50 worked out at 0.052 µM.
On to `O=C(Nc1cc(Cl)cc2c1[nH]c1cnccc12)c1ccccc1F` [Example 61], for which the half-inhibitory concentration (IC50) under setting [1] stood at 0.94 µM.
As for `O=C(Nc1cc(Cl)cc2c1[nH]c1cnccc12)c1ccccc1F` [Example 62], the IC50 under setting [1] was 0.38 µM.
Regarding `COc1cc2[nH]c3cnccc3c2cc1[N+](=O)[O-]` [Example 63], the IC50 under setting [1] was 1.3 µM.
For the compound `Clc1cc2c([nH]c3cnccc32)c(Cl)c1OCC1CC1` [Example 64], the IC50 under setting [1] was 0.11 µM.
With `Clc1cc2c([nH]c3cnccc32)c(Cl)c1OCC1CC1` [Example 65], the IC50 under setting [1] was determined as 0.1 µM.
Turning to `COc1cc2[nH]c3cnccc3c2cc1Cl` [Example 66], the IC50 under setting [1] worked out at 0.7 µM.
In the case of `COc1c(Cl)cc2c([nH]c3cnccc32)c1N` [Example 67], the IC50 under setting [1] is 0.5 µM.
In the case of `COc1c(Cl)cc2c([nH]c3cnccc32)c1NC(=O)c1cccnc1` [Example 68, N-(6-Chloro-7-methoxy-9H-β-carbolin-8-yl)-nicotinamide], the IC50 under setting [1] is 0.16 µM.
Regarding `O=C(c1cccnc1)N1CCn2c3cnccc3c3cc(Cl)cc1c32` [Example 69], the IC50 under setting [1] is 3 µM.
Consider `COCOc1c(Cl)cc2c([nH]c3cnccc32)c1Cl` [Example 70], for which the IC50 under setting [1] was found to be 0.36 µM.
On the same count and under the same terms, then `COc1ccc(C(=O)Nc2cc(Cl)cc3c2[nH]c2cnccc23)cc1OC` [Example 71], with 3 µM.
Same read-out and setting: then `N#Cc1cccc(C(=O)Nc2cc(Cl)cc3c2[nH]c2cnccc23)c1` [Example 72], with 0.58 µM; and `N#Cc1ccc(C(=O)Nc2cc(Cl)cc3c2[nH]c2cnccc23)cc1` [Example 73], with 0.4 µM; and `O=C(Nc1cc(Cl)cc2c1[nH]c1cnccc12)c1ccc(C(F)(F)F)cc1` [Example 74], with 3.8 µM.
Turning to `O=C(Nc1cc(Cl)cc2c1[nH]c1cnccc12)c1ccco1` [Example 75], the IC50 under setting [1] came to 0.29 µM.
For the compound `O=C(Nc1cc(Cl)cc2c1[nH]c1cnccc12)c1cccs1` [Example 76], the IC50 under setting [1] is 0.9 µM.
Take `Cc1oc(C(F)(F)F)cc1C(=O)Nc1cc(Cl)cc2c1[nH]c1cnccc12` [Example 77]: under setting [1], the IC50 worked out at 4.4 µM.
On to `Cn1nc(C(C)(C)C)cc1C(=O)Nc1cc(Cl)cc2c1[nH]c1cnccc12` [Example 78], for which the IC50 under setting [1] turned out to be 2.3 µM.
As to `O=C(Nc1cc(Cl)cc2c1[nH]c1cnccc12)c1ccno1` [Example 79], the IC50 under setting [1] is 0.18 µM.
In the case of `Cc1cc(C(=O)Nc2cc(Cl)cc3c2[nH]c2cnccc23)no1` [Example 80], the IC50 under setting [1] came to 0.31 µM.
Take `Clc1cc2c([nH]c3cnccc32)c(Cl)c1OCc1ccccc1` [Example 81]: the IC50 under setting [1] was found to be 0.25 µM.
Still for that read-out and setting: the figure for `O=C(Nc1cc(Cl)cc2c1[nH]c1cnccc12)c1ccc(F)c(F)c1` [Example 82, N-(6-Chloro-9H-β-carbolin-8-yl)-3,4-difluoro-benzamide] is 0.15 µM; for `O=C(Nc1cc(Cl)cc2c1[nH]c1cnccc12)c1ccc(Cl)nc1` [Example 83, 6-Chloro-N-(6-chloro-9H-β-carbolin-8-yl)-nicotinamide] it is 0.06 µM.
Turning to `CC(C)Oc1c(Cl)cc2c([nH]c3cnccc32)c1Cl` [Example 84], the IC50 under setting [1] was 0.1 µM.
For `CC(C)COc1c(Cl)cc2c([nH]c3cnccc32)c1Cl` [Example 85], the IC50 under setting [1] was 0.2 µM.
As for `O=C(Cc1cccs1)Nc1cc(Cl)cc2c1[nH]c1cnccc12` [Example 86], under setting [1], the IC50 was 0.7 µM.
As to `O=C(Nc1cc(Cl)cc2c1[nH]c1cnccc12)c1ccccn1` [Example 87], the IC50 under setting [1] stood at 0.75 µM.
As to `O=C(Nc1cc(Cl)cc2c1[nH]c1cnccc12)c1cnccn1` [Example 88], the IC50 under setting [1] is 0.28 µM.
On the same count and under the same terms, then `O=C(Nc1cc(Cl)cc2c1[nH]c1cnccc12)c1ccc2c(c1)OCO2` [Example 89], with 0.57 µM; and `O=C(COCc1ccccc1)Nc1cc(Cl)cc2c1[nH]c1cnccc12` [Example 90], with 1.4 µM.
Consider `O=C1COc2c(Cl)cc3c([nH]c4cnccc43)c2N1` [Example 91], for which the IC50 under setting [1] came out at 2.3 µM.
Still for that read-out and setting: then `Clc1cc2c([nH]c3cnccc32)c(Cl)c1OC1CCCC1` [Example 92], with 0.4 µM; and `CCN(CC)CCOc1c(Cl)cc2c([nH]c3cnccc32)c1Cl` [Example 93], with 1.3 µM.
Regarding `COc1c([N+](=O)[O-])cc2c([nH]c3cnccc32)c1Cl` [Example 94], under setting [1], the IC50 is 0.64 µM.
The same measure, in the same setting: then `COc1c(N)cc2c([nH]c3cnccc32)c1Cl` [Example 95], with 1 µM.
For the compound `Clc1cc2c([nH]c3cnccc32)c(Cl)c1OCC1CCCCC1` [Example 96], the midpoint of inhibition (IkB-kinase IC50), the IC50, lay at 1.3 µM.
Regarding `O=C(Cc1cccnc1)Nc1cc(Cl)cc2c1[nH]c1cnccc12` [Example 97], under setting [1], the IC50 was 0.69 µM.
As for `CN(C)CC(=O)Nc1cc(Cl)cc2c1[nH]c1cnccc12` [Example 98], the IC50 under setting [1] amounted to 0.9 µM.
Take `O=C1CC[C@H](C(=O)Nc2cc(Cl)cc3c2[nH]c2cnccc23)N1` [Example 99]: the IC50 under setting [1] stood at 0.09 µM.
Still for that read-out and setting: then `O=C(COc1ccccc1)Nc1cc(Cl)cc2c1[nH]c1cnccc12` [Example 100], with 1.5 µM; and `CC(=O)Oc1c(Cl)cc2c([nH]c3cnccc32)c1Cl` [Example 101], with 1.8 µM.
Consider `O=C1CC[C@@H](C(=O)Nc2cc(Cl)cc3c2[nH]c2cnccc23)N1` [Example 103], for which, under setting [1], the IC50 worked out at 0.31 µM.
Consider `O=C(Nc1cc(Cl)cc2c1[nH]c1cnccc12)c1cccnc1O` [Example 104], for which the IC50 under setting [1] was 1 µM.
With `Cc1cc(C(=O)Nc2cc(Cl)cc3c2[nH]c2cnccc23)n(C)n1` [Example 106], under setting [1], the IC50 worked out at 0.6 µM.
Take `CC(C)(C)c1cc(C(=O)Nc2cc(Cl)cc3c2[nH]c2cnccc23)n(Cc2ccccc2)n1` [Example 107]: the IC50 under setting [1] was determined as 0.4 µM.
